Measured values taken from patent publication EP3033337B1, “SUBSTITUTED IMIDAZOLES AS N-TYPE CALCIUM CHANNEL BLOCKERS” (Janssen Pharmaceutica NV, priority 2013, dated 2015).
Read-outs that look alike come from different tables or passages of the source.

Legend:
human N-type Ca channel [1] = biological target: T1, human N-type Ca channel (Homo sapiens, UniProt Q00975); experiment: Electrophysiological response, QPatch (depolarization -80 mV to +20 mV)
human N-type Ca channel [2] = biological target: T1, human N-type Ca channel; experiment: Calcium influx assay (FDSS), KCl depolarization, Fluo8 dye; type: cell-based; design: host or cells: HEK 293; settings: HEK 293 cells expressing human N-type Ca channel; 100 mM KCl; read-out: N Type IC50 Data FDSS
Procedure, shortened: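 HEK293 cells stably expressing the human N-type Ca channel were loaded with Fluo8 and washed in choline-based buffer (pH 7.2, 2 mM CaCl2, 2 mM KCl). Cells were preincubated with serially diluted compound for 15 min in the dark. Ca influx was then recorded by fluorescence after depolarization with 100 mM KCl.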

[3] = test system: CFA-induced mechanical allodynia; experiment: Complete Freund's Adjuvant (CFA) induced mechanical allodynia, Von Frey test; type: in vivo
Method: Animals arrived and were acclimatized for 1-2 weeks in a temperature-controlled room with a 12 h light/dark cycle and allowed free access to standard laboratory chow and water.
CFA (Sigma) was injected intra-plantar (75 µg/150 µL) from a concentration of 1:1 (diluted 1 mg/ mL of CFA in 1 mL ofPBS). CFA-induced mechanical allodynia was quantified by a Von frey test on day 2 (48 h post injection of CFA) and animals were randomized based on iPWT response (Dixon 1980). […] Animals were administered a compound of Formula (I) through appropriate route based on their pharmacokinetic properties. Responses were measured with a Von-Frey filament. The maximum possible effect (% MPE) was determined as 100% if sensitivity in ipsilateral paw neared that of the contralateral paw. Values from the vehicle-treated animals were considered 0%. The compound effect was determined based on these values.

Rats = experiment: Sciatic nerve ligation (SNL) model of neuropathic pain, L5/L6 spinal nerve ligation, von Frey filaments; type: in vivo; settings: response at Tmax
Description: Left L5 and L6 spinal nerves are isolated adjacent to the vertebral column and were ligated with 5-0 silk suture distal to the dorsal root ganglion, as described by Kim and Chung (1992). The incision was closed with the help of GLUture topical tissue adhesive. At 14 days post-surgery (one day prior to test compound administration), mechanical allodynia was quantified using eight von Frey filaments, calibrated in the range 0.4-15.1 g (Nielsen et al 2005). Rats were placed into individual plastic containers on top of a suspended wire mesh grid and acclimated to the test chambers for at least 15 min. Filaments were applied perpendicular to the mid-plantar paw surface, with enough force to cause slight buckling, and held in place for 6-8 sec until a response was noted as a sharp paw withdrawal, flinching, licking and/or biting immediately upon removal of the filament (Nielsen et al 2005). […] Test compounds of Formula (I) were administered and a response was measured at Tmax. The maximum possible effect (% MPE) was determined to be 100% if the sensitivity in the ipsilateral paw neared that of the contralateral paw. Values from vehicle-treated animals were considered 0 %. The compound effect was determined based on these values.

[4] = N Type IC50 Data Qpatch Pulse=1, Pulse=1, concentration range 0.01-1 µM
[5] = N Type IC50 Data Qpatch Pulse=15, Pulse=15, concentration range 0.01-1 µM
[6] = N Type IC50 Data Qpatch Pulse=1, Pulse=1, concentration range 0.3-10 µM
[7] = N Type IC50 Data Qpatch Pulse=15, Pulse=15, concentration range 0.3-10 µM
[8] = read-out: Qpatch Pulse=1 (percent inhibition)
[9] = read-out: Qpatch Pulse=15 (percent inhibition)

T1 sequence (Q00975 whole entry): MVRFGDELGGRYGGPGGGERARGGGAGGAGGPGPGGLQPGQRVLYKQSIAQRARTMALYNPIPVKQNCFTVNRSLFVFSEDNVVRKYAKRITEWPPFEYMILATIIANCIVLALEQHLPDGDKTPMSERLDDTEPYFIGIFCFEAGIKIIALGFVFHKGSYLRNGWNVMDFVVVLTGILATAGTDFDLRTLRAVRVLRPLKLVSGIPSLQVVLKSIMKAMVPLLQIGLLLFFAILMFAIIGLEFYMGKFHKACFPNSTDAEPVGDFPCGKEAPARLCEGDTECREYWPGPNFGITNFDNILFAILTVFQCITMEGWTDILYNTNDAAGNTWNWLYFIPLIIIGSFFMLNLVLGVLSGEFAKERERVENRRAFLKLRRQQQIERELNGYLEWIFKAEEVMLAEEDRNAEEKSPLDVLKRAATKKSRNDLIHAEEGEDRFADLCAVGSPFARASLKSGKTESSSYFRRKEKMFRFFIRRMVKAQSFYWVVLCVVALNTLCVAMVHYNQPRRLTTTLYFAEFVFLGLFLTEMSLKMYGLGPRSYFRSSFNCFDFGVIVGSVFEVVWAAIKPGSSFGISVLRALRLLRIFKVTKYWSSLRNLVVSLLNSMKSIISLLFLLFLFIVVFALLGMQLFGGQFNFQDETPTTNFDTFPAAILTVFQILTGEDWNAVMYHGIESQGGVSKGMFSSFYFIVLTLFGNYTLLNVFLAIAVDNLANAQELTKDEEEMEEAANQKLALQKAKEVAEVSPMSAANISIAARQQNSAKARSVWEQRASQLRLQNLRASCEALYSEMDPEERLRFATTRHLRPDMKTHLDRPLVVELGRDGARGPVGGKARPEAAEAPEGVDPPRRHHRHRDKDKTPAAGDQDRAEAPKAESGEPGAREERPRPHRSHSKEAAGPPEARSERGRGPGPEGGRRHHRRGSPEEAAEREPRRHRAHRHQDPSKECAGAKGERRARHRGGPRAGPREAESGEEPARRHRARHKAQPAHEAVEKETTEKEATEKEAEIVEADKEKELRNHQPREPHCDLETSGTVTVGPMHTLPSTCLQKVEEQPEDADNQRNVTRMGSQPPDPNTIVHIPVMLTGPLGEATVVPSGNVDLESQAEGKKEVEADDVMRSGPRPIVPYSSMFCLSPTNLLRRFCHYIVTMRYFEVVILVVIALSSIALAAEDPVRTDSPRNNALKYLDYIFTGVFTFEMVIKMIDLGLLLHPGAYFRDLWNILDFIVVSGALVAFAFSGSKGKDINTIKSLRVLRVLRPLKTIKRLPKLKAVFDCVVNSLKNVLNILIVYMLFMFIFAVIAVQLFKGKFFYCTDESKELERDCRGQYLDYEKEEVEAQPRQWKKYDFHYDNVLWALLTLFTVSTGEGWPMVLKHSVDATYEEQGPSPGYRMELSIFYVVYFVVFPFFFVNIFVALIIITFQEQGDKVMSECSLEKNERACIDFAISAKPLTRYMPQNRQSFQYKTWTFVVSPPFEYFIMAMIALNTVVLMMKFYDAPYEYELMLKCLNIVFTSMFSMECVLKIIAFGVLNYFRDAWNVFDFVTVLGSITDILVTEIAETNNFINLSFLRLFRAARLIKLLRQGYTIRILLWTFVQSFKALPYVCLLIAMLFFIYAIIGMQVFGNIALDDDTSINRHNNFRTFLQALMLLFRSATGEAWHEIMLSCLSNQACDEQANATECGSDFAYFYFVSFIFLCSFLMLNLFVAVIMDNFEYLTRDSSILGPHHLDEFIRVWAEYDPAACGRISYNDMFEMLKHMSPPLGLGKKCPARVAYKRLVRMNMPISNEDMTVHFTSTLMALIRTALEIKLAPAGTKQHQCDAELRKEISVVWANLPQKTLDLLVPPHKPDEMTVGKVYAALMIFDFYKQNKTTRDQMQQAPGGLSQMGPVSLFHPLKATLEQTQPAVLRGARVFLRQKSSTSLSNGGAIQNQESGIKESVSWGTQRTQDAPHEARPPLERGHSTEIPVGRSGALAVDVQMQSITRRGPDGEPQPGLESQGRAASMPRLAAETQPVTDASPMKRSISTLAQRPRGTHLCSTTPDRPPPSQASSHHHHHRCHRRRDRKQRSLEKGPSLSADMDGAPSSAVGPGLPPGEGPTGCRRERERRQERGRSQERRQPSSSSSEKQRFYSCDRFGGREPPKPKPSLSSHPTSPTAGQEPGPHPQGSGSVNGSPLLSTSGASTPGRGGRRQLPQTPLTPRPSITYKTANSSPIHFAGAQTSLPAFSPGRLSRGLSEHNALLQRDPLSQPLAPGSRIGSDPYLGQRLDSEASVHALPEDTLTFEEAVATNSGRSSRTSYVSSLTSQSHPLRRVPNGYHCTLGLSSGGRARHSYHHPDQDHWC
T1 sequence (P54284 whole entry partner): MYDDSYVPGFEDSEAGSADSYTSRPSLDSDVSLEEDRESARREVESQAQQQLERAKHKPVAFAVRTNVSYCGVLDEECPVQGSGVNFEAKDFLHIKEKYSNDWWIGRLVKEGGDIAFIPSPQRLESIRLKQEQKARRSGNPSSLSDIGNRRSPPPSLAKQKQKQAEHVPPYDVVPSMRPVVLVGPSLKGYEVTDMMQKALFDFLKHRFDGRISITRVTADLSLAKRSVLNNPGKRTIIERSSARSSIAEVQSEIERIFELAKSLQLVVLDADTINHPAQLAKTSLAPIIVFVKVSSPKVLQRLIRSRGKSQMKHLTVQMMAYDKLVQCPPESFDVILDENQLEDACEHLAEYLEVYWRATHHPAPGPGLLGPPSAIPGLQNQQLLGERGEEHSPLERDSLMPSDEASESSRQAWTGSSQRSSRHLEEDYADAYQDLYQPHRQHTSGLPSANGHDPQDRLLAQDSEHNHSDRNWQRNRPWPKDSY
T1 sequence (P54289 25-956 partner limits assumed): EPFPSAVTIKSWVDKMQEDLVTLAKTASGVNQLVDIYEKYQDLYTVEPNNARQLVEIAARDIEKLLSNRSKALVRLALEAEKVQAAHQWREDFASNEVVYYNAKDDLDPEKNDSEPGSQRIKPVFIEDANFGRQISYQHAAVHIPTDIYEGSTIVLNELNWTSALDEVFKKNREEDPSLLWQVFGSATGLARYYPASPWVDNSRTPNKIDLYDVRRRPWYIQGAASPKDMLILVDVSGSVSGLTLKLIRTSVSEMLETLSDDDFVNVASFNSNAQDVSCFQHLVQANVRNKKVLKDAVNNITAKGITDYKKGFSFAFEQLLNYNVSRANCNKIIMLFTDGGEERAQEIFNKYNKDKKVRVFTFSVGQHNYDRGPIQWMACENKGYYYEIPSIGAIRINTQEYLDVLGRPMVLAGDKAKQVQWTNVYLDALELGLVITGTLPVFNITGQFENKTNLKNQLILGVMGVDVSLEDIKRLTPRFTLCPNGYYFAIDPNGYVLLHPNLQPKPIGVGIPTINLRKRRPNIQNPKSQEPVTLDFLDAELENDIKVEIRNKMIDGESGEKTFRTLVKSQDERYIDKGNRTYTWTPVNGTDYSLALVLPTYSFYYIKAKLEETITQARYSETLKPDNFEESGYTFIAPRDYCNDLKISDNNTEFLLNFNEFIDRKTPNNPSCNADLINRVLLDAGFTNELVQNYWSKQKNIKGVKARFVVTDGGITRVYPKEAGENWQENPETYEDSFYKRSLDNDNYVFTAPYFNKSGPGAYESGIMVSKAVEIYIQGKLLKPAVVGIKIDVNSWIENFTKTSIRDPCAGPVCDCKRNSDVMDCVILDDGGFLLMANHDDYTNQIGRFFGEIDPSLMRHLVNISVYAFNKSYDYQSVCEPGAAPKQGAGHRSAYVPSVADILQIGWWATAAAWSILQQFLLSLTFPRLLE
T1 sequence (P54289 957-1103 partner limits assumed): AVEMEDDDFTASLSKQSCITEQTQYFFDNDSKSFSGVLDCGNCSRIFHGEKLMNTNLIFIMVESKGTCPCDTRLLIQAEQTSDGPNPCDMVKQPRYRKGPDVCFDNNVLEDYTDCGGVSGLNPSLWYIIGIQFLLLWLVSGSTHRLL

| SMILES | IC50 (human N-type Ca channel [2]) [nM] | IC50 (human N-type Ca channel [1]; [6]) [nM] | IC50 (human N-type Ca channel [1]; [7]) [nM] | further results |
| --- | --- | --- | --- | --- |
| COc1ccccc1-c1nc(C2CC(C)(C)OC(C)(C)C2)cn1-c1ccc(C#N)cc1 [Compound 1, 4-[2-(2-Methoxyphenyl)-4-(2,2,6,6-tetramethyltetrahydro-2H-pyran-4-yl)-1H-imidazol-1-yl]benzonitrile] | 41 |  |  | IC50 (human N-type Ca channel [1]; [4]): 365 nM; IC50 (human N-type Ca channel [1]; [5]): > 1000 nM; CFA (% Reversal) ([3]; Dose 12.5 mg/kg): 19.73±8.25%; CFA (% Reversal) ([3]; Dose 25 mg/kg): 37.62±7.17%; CFA (% Reversal) ([3]; Dose 50 mg/kg): 58.8±10.22%; CFA (% Reversal) ([3]; Dose 100 mg/kg): 75.26±8.96%; SNL(%MPE) (Rats; Dose 12.5 mg/kg): 22.21±7.61%; SNL(%MPE) (Rats; Dose 25 mg/kg): 40.9±20.29%; SNL(%MPE) (Rats; Dose 100 mg/kg): 75±13.01% |
| COc1ncccc1-c1nc(C2CC(C)(C)OC(C)(C)C2)cn1-c1ccc(F)cc1 [Compound 10, 3-(1-(4-fluorophenyl)-4-(2,2,6,6-tetramethyltetrahydro-2H-pyran-4-yl)-1H-imidazol-2-yl)-2-methoxypyridine] | 401 | 5920 | 1470 | SNL(%MPE) (Rats; Dose 3 mg/kg): 12.17±11.24%; SNL(%MPE) (Rats; Dose 10 mg/kg): 40.53±13.64%; SNL(%MPE) (Rats; Dose 30 mg/kg): 54.59±13.37%; SNL(%MPE) (Rats; Dose 100 mg/kg): 85.45±8.44% |
| COc1ccccc1-c1nc(C2CC(C)(C)OC(C)(C)C2)cn1-c1ccc(Cl)cc1 [Compound 38, 1-(4-chlorophenyl)-2-(2-methoxyphenyl)-4-(2,2,6,6-tetramethyltetrahydro-2H-pyran-4-yl)-1H-imidazole] | 372 | 2400 | 769 | SNL(%MPE) (Rats; Dose 50 mg/kg): 87.01± 9.25% |
| COc1ccccc1-c1nc(C2(O)CC(C)(C)OC(C)(C)C2)cn1-c1ccc(F)c(F)c1 [Compound 107, 4-(1-(3,4-difluorophenyl)-2-(2-methoxyphenyl)-1H-imidazol-4-yl)-2,2,6,6-tetramethyltetrahydro-2H-pyran-4-ol] | 430 | 3530 | 2420 |  |
| COc1ncccc1-c1nc(C2(O)CC(C)(C)OC(C)(C)C2)cn1-c1ccc(F)c(F)c1 [Compound 108, 4-(1-(3,4-difluorophenyl)-2-(2-methoxypyridin-3-yl)-1H-imidazol-4-yl)-2,2,6,6-tetramethyltetrahydro-2H-pyran-4-ol] | 394 | 5800 | 7400 |  |
| COc1ccccc1-c1nc(C2(O)CC(C)(C)OC(C)(C)C2)cn1-c1ccc(C(F)(F)F)nc1 [Compound 109, 4-(2-(2-methoxyphenyl)-1-(6-(trifluoromethyl)pyridin-3-yl)-1H-imidazol-4-yl)-2,2,6,6-tetramethyltetrahydro-2H-pyran-4-ol] | 322 | 4500 | 7900 |  |
| COc1ncccc1-c1nc(C2(O)CC(C)(C)OC(C)(C)C2)cn1-c1ccc(F)c(Cl)c1 [Compound 110, 4-(1-(3-chloro-4-fluorophenyl)-2-(2-methoxypyridin-3-yl)-1H-imidazol-4-yl)-2,2,6,6-tetramethyltetrahydro-2H-pyran-4-ol] | 385 |  |  | inhibition at 10 µM (human N-type Ca channel [1]; [8]): 44%; inhibition at 10 µM (human N-type Ca channel [1]; [9]): 30% |
| COc1ccccc1-c1nc(C2(O)CC(C)(C)OC(C)(C)C2)cn1-c1ccc(F)c(Cl)c1 [Compound 111, 4-(1-(3-chloro-4-fluorophenyl)-2-(2-methoxyphenyl)-1H-imidazol-4-yl)-2,2,6,6-tetramethyltetrahydro-2H-pyran-4-ol] | 257 |  | 2500 | inhibition at 10 µM (human N-type Ca channel [1]; [8]): 62% |
| COc1ccccc1-c1nc(C2(O)CC(C)(C)OC(C)(C)C2)cn1-c1ccc(Cl)c(F)c1 [Compound 112, 4-(1-(4-chloro-3-fluorophenyl)-2-(2-methoxyphenyl)-1H-imidazol-4-yl)-2,2,6,6-tetramethyltetrahydro-2H-pyran-4-ol] | 41 | 2500 | 3000 |  |
| COc1ncccc1-c1nc(C2(O)CC(C)(C)OC(C)(C)C2)cn1-c1ccc(Cl)c(F)c1 [Compound 113, 4-(1-(4-chloro-3-fluorophenyl)-2-(2-methoxypyridin-3-yl)-1H-imidazol-4-yl)-2,2,6,6-tetramethyltetrahydro-2H-pyran-4-ol] | 83 | 4400 | 7800 |  |
| CCOc1ncccc1-c1nc(C2(O)CC(C)(C)OC(C)(C)C2)cn1-c1ccc(Cl)cc1 [Compound 114, 4-(1-(4-chlorophenyl)-2-(2-ethoxypyridin-3-yl)-1H-imidazol-4-yl)-2,2,6,6-tetramethyltetrahydro-2H-pyran-4-ol] | 607 |  |  | IC50 (human N-type Ca channel [1]; [4]): 668 nM; IC50 (human N-type Ca channel [1]; [5]): > 1000 nM |
| COc1ccccc1-c1nc(C2(O)CC(C)(C)OC(C)(C)C2)cn1-c1ccc(F)c(C#N)c1 [Compound 117, 2-fluoro-5-(4-(4-hydroxy-2,2,6,6-tetramethyltetrahydro-2H-pyran-4-yl)-2-(2-methoxyphenyl)-1H-imidazol-1-yl)benzonitrile] | 1440 |  |  | inhibition at 10 µM (human N-type Ca channel [1]; [8]): 40%; inhibition at 10 µM (human N-type Ca channel [1]; [9]): 25% |
| COc1ccccc1-c1nc(C2(O)CC(C)(C)OC(C)(C)C2)cn1-c1ccc(C#N)c(F)c1 [Compound 118, 2-fluoro-4-(4-(4-hydroxy-2,2,6,6-tetramethyltetrahydro-2H-pyran-4-yl)-2-(2-methoxyphenyl)-1H-imidazol-1-yl)benzonitrile] | 150 | 8100 |  |  |
| COc1ncccc1-c1nc(C2(O)CC(C)(C)OC(C)(C)C2)cn1-c1ccc(C#N)c(F)c1 [Compound 119, 2-fluoro-4-(4-(4-hydroxy-2,2,6,6-tetramethyltetrahydro-2H-pyran-4-yl)-2-(2-methoxypyridin-3-yl)-1H-imidazol-1-yl)benzonitrile] | 1290 |  |  | inhibition at 10 µM (human N-type Ca channel [1]; [8]): 28% |
| COc1cnccc1-c1nc(C2(O)CC(C)(C)OC(C)(C)C2)cn1-c1ccc(Cl)cc1 [Compound 120, 4-(1-(4-chlorophenyl)-2-(3-methoxypyridin-4-yl)-1H-imidazol-4-yl)-2,2,6,6-tetramethyltetrahydro-2H-pyran-4-ol] | 108 | 1600 | 9100 |  |
| CC1(C)CC(c2cn(-c3ccc(Cl)cc3)c(-c3ccc[nH]c3=O)n2)CC(C)(C)O1 [Compound 122, 3-(1-(4-chlorophenyl)-4-(2,2,6,6-tetramethyltetrahydro-2H-pyran-4-yl)-1H-imidazol-2-yl)pyridin-2(1H)-one] | 3010 |  |  | IC50 (human N-type Ca channel [1]; read-out: N Type IC50 Data Qpatch Pulse=1, Pulse=1, concentration range 0.01-1 µM): > 1000 nM; IC50 (human N-type Ca channel [1]; read-out: N Type IC50 Data Qpatch Pulse=15, Pulse=15, concentration range 0.01-1 µM): > 1000 nM |
| COc1ccccc1-c1nc(C2CC(C)(C)OC(C)(C)C2)cn1-c1ccc(C#N)c(Cl)c1 [Compound 123, 2-chloro-4-(2-(2-methoxyphenyl)-4-(2,2,6,6-tetramethyltetrahydro-2H-pyran-4-yl)-1H-imidazol-1-yl)benzonitrile] | 129 |  |  | IC50 (human N-type Ca channel [1]; [4]): 468 nM; IC50 (human N-type Ca channel [1]; [5]): > 1000 nM |
| COc1ccccc1-c1nc(C2=CC(C)(C)OC(C)(C)C2)cn1-c1ccc(Cl)cc1 [Compound 124, 1-(4-chlorophenyl)-2-(2-methoxyphenyl)-4-(2,2,6,6-tetramethyl-3,6-dihydro-2H-pyran-4-yl)-1H-imidazole] | 103 | 2500 | 1600 |  |
| COc1ccccc1-c1nc(C2=CC(C)(C)OC(C)(C)C2)cn1-c1ccc(Br)c(F)c1 [Compound 125, 1-(4-bromo-3-fluorophenyl)-2-(2-methoxyphenyl)-4-(2,2,6,6-tetramethyl-3,6-dihydro-2H-pyran-4-yl)-1H-imidazole] | 313 | 2100 | 2300 |  |
